From patent publication US20050070510A1, “Substituted tetracycline compounds as synergistic antifungal agents” (Paratek Pharmaceuticals, Inc., priority 2001, published 2005)

System: COS-1 cells
Test: In vitro mammalian cytotoxicity assay (Resazurin)

Compound	In Vitro Cytotoxicity
COc1ccc(CNCCc2ccccc2)cc1-c1ccc(O)c2c1C[C@@]1(N)C[C@@]3(N)[C@H](N(C)C)C(O)=C(C(N)=O)C(=O)[C@@]3(C#N)C(O)=C1C2=O [NH]	** (toxicities less than 25 μg/mL are represented by **)
CN(C)c1cc(-c2ccc(Cl)c(Cl)c2)c(O)c2c1C[C@@]1(N)C[C@@]3(N)[C@H](N(C)C)C(O)=C(C(N)=O)C(=O)[C@@]3(C#N)C(O)=C1C2=O [EV]	** (toxicities less than 25 μg/mL are represented by **)
CN(C)[C@@H]1C(O)=C(C(N)=O)C(=O)[C@@]2(C#N)C(O)=C3C(=O)c4c(O)ccc(-c5ccc(CNC6CCCCC6)o5)c4C[C@@]3(N)C[C@@]12N [SR]	** (toxicities less than 25 μg/mL are represented by **)
CN(C)[C@@H]1C(O)=C(C(N)=O)C(=O)[C@@]2(C#N)C(O)=C3C(=O)c4c(O)ccc(C#CCCCCC#Cc5ccc(O)c6c5C[C@@]5(N)C[C@@]7(N)[C@H](N(C)C)C(O)=C(C(N)=O)C(=O)[C@@]7(C#N)C(O)=C5C6=O)c4C[C@@]3(N)C[C@@]12N [Compound NB, 1,8-Di-7-Sancyclinyl-1,8-Heptyne]	* (toxicities greater than >25 μg/ml are represented by *)
CN(C)c1cc(CNCc2ccccc2)c(O)c2c1C[C@@]1(N)C[C@@]3(N)[C@H](N(C)C)C(O)=C(C(N)=O)C(=O)[C@@]3(C#N)C(O)=C1C2=O [TH]	* (toxicities greater than >25 μg/ml are represented by *)
COc1ccc(Cl)cc1-c1ccc(O)c2c1C[C@@]1(N)C[C@@]3(N)[C@H](N(C)C)C(O)=C(C(N)=O)C(=O)[C@@]3(C#N)C(O)=C1C2=O [GL]	** (toxicities less than 25 μg/mL are represented by **)
CN(C)c1cc(CCc2ccccc2)c(O)c2c1C[C@@]1(N)C[C@@]3(N)[C@H](N(C)C)C(O)=C(C(N)=O)C(=O)[C@@]3(C#N)C(O)=C1C2=O [MN]	** (toxicities less than 25 μg/mL are represented by **)
CN(C)[C@@H]1C(O)=C(C(N)=O)C(=O)[C@@]2(C#N)C(O)=C3C(=O)c4c(O)ccc(I)c4[C@H](N)[C@@]3(N)[C@H](OC(=O)C3CCCCC3)[C@@]12N [CV]	** (toxicities less than 25 μg/mL are represented by **)
CCCN(CCC)Cc1ccc(-c2ccc(O)c3c2C[C@@]2(N)C[C@@]4(N)[C@H](N(C)C)C(O)=C(C(N)=O)C(=O)[C@@]4(C#N)C(O)=C2C3=O)c2ccccc12 [OP]	** (toxicities less than 25 μg/mL are represented by **)
CC(=O)Oc1cccc(-c2cc(N(C)C)c3c(c2O)C(=O)C2=C(O)[C@]4(C#N)C(=O)C(C(N)=O)=C(O)[C@@H](N(C)C)[C@]4(N)C[C@]2(N)C3)c1 [GP]	* (toxicities greater than >25 μg/ml are represented by *)
CN(C)[C@@H]1C(O)=C(C(N)=O)C(=O)[C@@]2(C#N)C(O)=C3C(=O)c4c(O)cccc4/C(=C\c4ccc(F)cc4)[C@@]3(N)[C@H]([S+](N)[O-])[C@@]12N (stereo partly shown) [BU]	** (toxicities less than 25 μg/mL are represented by **)
CN(C)[C@@H]1C(O)=C(C(N)=O)C(=O)[C@@]2(C#N)C(O)=C3C(=O)c4c(O)c(C(C)(C)C)cc(C(=O)Cl)c4C[C@@]3(N)C[C@@]12N [QA]	** (toxicities less than 25 μg/mL are represented by **)
CN(C)[C@@H]1C(O)=C(C(N)=O)C(=O)[C@@]2(C#N)C(O)=C3C(=O)c4c(O)c(CNC(=O)c5cccnc5)cc(CCC5CCCCC5)c4C[C@@]3(N)C[C@@]12N [JC]	** (toxicities less than 25 μg/mL are represented by **)
CN(C)[C@@H]1C(O)=C(C(N)=O)C(=O)[C@@]2(C#N)C(O)=C3C(=O)c4c(ccc(CNCC(C)(C)C)c4O)[C@H](N)[C@@]3(N)[C@H](O)[C@@]12N [RP]	* (toxicities greater than >25 μg/ml are represented by *)
C#Cc1cc(N(C)C)c2c(c1O)C(=O)C1=C(O)[C@]3(C#N)C(=O)C(C(N)=O)=C(O)[C@@H](N(C)C)[C@]3(N)C[C@]1(N)C2 [DI]	** (toxicities less than 25 μg/mL are represented by **)
CCOc1ccc(/C=C2\c3cccc(O)c3C(=O)C3=C(O)[C@]4(C#N)C(=O)C(C(N)=O)=C(O)[C@@H](N(C)C)[C@]4(N)[C@@H](O)[C@@]32N)cc1 [DF]	** (toxicities less than 25 μg/mL are represented by **)
COc1ccc(CNC2CCCCC2)cc1-c1ccc(O)c2c1C[C@@]1(N)C[C@@]3(N)[C@H](N(C)C)C(O)=C(C(N)=O)C(=O)[C@@]3(C#N)C(O)=C1C2=O [LQ]	* (toxicities greater than >25 μg/ml are represented by *)
CN(C)[C@@H]1C(O)=C(C(N)=O)C(=O)[C@@]2(C#N)C(O)=C3C(=O)c4c(O)c(C(C)(C)C)cc(CN)c4C[C@@]3(N)C[C@@]12N [RC]	* (toxicities greater than >25 μg/ml are represented by *)
CN(C)[C@@H]1C(O)=C(C(N)=O)C(=O)[C@@]2(C#N)C(O)=C3C(=O)c4c(O)cccc4/C(=C\c4ccc5ccccc5c4)[C@@]3(N)[C@H](O)[C@@]12N [DQ]	** (toxicities less than 25 μg/mL are represented by **)
CN(C)[C@@H]1C(O)=C(C(N)=O)C(=O)[C@@]2(C#N)C(O)=C3C(=O)c4c(ccc(-c5cc6ccccc6o5)c4O)[C@H](N)[C@@]3(N)[C@H](O)[C@@]12N [QC]	** (toxicities less than 25 μg/mL are represented by **)

Compound	In Vitro Cytotoxicity
CCc1cncc(-c2ccc(O)c3c2C[C@@]2(N)C[C@@]4(N)[C@H](N(C)C)C(O)=C(C(N)=O)C(=O)[C@@]4(C#N)C(O)=C2C3=O)c1 [UY]	** (toxicities less than 25 μg/mL are represented by **)
CN(C)[C@@H]1C(O)=C(C(N)=O)C(=O)[C@@]2(C#N)C(O)=C3C(=O)c4c(O)c(CN5C(=O)c6ccccc6C5=O)cc(-c5cccc([N+](=O)O)c5)c4C[C@@]3(N)C[C@@]12N [JQ]	** (toxicities less than 25 μg/mL are represented by **)
CN(C)c1cc(NCc2ccc([N+](=O)O)o2)c(O)c2c1C[C@@]1(N)C[C@@]3(N)[C@H](N(C)C)C(O)=C(C(N)=O)C(=O)[C@@]3(C#N)C(O)=C1C2=O [UH]	** (toxicities less than 25 μg/mL are represented by **)
CCC(=O)O[C@H]1[C@@]2(N)C(=C(O)[C@]3(C#N)C(=O)C(C(N)=O)=C(O)[C@@H](N(C)C)[C@]13N)C(=O)c1c(ccc(NC(=O)Nc3cccc4ccccc34)c1O)[C@@H]2N [BL]	* (toxicities greater than >25 μg/ml are represented by *)
CN(C)[C@@H]1C(O)=C(C(N)=O)C(=O)[C@@]2(C#N)C(O)=C3C(=O)c4c(O)cccc4/C(=C\c4cccc(C(N)=O)c4)[C@@]3(N)[C@H](O)[C@@]12N [CK]	* (toxicities greater than >25 μg/ml are represented by *)
CN(C)[C@@H]1C(O)=C(C(N)=O)C(=O)[C@@]2(C#N)C(O)=C3C(=O)c4c(ccc(NC(=O)Nc5cccc6ccccc56)c4O)[C@H](N)[C@@]3(N)[C@H](OC(=O)Nc3ccccc3)[C@@]12N [BJ]	** (toxicities less than 25 μg/mL are represented by **)
CCCCOCCCNCc1ccc(OC)c(-c2ccc(O)c3c2C[C@@]2(N)C[C@@]4(N)[C@H](N(C)C)C(O)=C(C(N)=O)C(=O)[C@@]4(C#N)C(O)=C2C3=O)c1 [NL]	* (toxicities greater than >25 μg/ml are represented by *)
CN(C)c1cc(-c2cccc([N+](=O)O)c2)c(O)c2c1C[C@@]1(N)C[C@@]3(N)[C@H](N(C)C)C(O)=C(C(N)=O)C(=O)[C@@]3(C#N)C(O)=C1C2=O [EG]	** (toxicities less than 25 μg/mL are represented by **)
CCCCc1ccc(O)c2c1C[C@@]1(N)C[C@@]3(N)[C@H](N(C)C)C(O)=C(C(N)=O)C(=O)[C@@]3(C#N)C(O)=C1C2=O [KY]	** (toxicities less than 25 μg/mL are represented by **)
CN(C)[C@@H]1C(O)=C(C(N)=O)C(=O)[C@@]2(C#N)C(O)=C3C(=O)c4c(O)ccc(-c5ccc(F)c(F)c5)c4C[C@@]3(N)C[C@@]12N [QB]	** (toxicities less than 25 μg/mL are represented by **)
CN(C)c1ccc(-c2cc([N+](=O)O)c(O)c3c2C[C@@]2(N)C[C@@]4(N)C(N(C)C)C(O)=C(C(N)=O)C(=O)[C@@]4(C#N)C(O)=C2C3=O)cc1 (stereo partly shown) [RE]	** (toxicities less than 25 μg/mL are represented by **)
CN(C)[C@@H]1C(O)=C(C(N)=O)C(=O)[C@@]2(C#N)C(O)=C3C(=O)c4c(ccc(/C=C\C(=O)NC(C)(C)C)c4O)[C@H](N)[C@@]3(N)[C@H](O)[C@@]12N [JA]	* (toxicities greater than >25 μg/ml are represented by *)
CN(C)c1ccc(-c2cc(C#CC3=CCCCC3)c(O)c3c2C[C@@]2(N)C[C@@]4(N)[C@H](N(C)C)C(O)=C(C(N)=O)C(=O)[C@@]4(C#N)C(O)=C2C3=O)cc1 [QO]	** (toxicities less than 25 μg/mL are represented by **)
CN(C)[C@@H]1C(O)=C(C(N)=O)C(=O)[C@@]2(C#N)C(O)=C3C(=O)c4c(O)ccc(C#Cc5ccc(NS(C)(=O)=O)cc5)c4C[C@@]3(N)C[C@@]12N [HO]	** (toxicities less than 25 μg/mL are represented by **)
CN(C)[C@@H]1C(O)=C(C(N)=O)C(=O)[C@@]2(C#N)C(O)=C3C(=O)c4c(ccc(C(C)(C)CCC[N+](=O)[O-])c4O)[C@H](N)[C@@]3(N)[C@H](O)[C@@]12N [BF]	** (toxicities less than 25 μg/mL are represented by **)
CN(C)[C@@H]1C(O)=C(C(N)=O)C(=O)[C@@]2(C#N)C(O)=C3C(=O)c4c(O)ccc(C#CC5=CCCCC5)c4C[C@@]3(N)C[C@@]12N [GF]	** (toxicities less than 25 μg/mL are represented by **)
COc1cccc(C#Cc2cc(N(C)C)c3c(c2O)C(=O)C2=C(O)[C@]4(C#N)C(=O)C(C(N)=O)=C(O)[C@@H](N(C)C)[C@]4(N)C[C@]2(N)C3)c1 [JF]	** (toxicities less than 25 μg/mL are represented by **)
CN(C)c1cc(NC(=O)Nc2ccc(Cl)cc2C(F)(F)F)c(O)c2c1C[C@@]1(N)C[C@@]3(N)[C@H](N(C)C)C(O)=C(C(N)=O)C(=O)[C@@]3(C#N)C(O)=C1C2=O [CB]	** (toxicities less than 25 μg/mL are represented by **)
COc1ccc(C#Cc2ccc(O)c3c2C[C@@]2(N)C[C@@]4(N)[C@H](N(C)C)C(O)=C(C(N)=O)C(=O)[C@@]4(C#N)C(O)=C2C3=O)cc1 [FZ]	** (toxicities less than 25 μg/mL are represented by **)
COC(=O)c1cc(N(C)C)c2c(c1O)C(=O)C1=C(O)[C@]3(C#N)C(=O)C(C(N)=O)=C(O)[C@@H](N(C)C)[C@]3(N)C[C@]1(N)C2 [Compound TC, 9-Minocycline methyl ester]	* (toxicities greater than >25 μg/ml are represented by *)
